Assays:
DDR1 = assay: Kinobeads competition binding: DDR1; set-up: species or system human; conditions: target DDR1
FN3KRP = assay: Kinobeads competition binding: FN3KRP; set-up: species or system human; conditions: target FN3KRP;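 note: share of total target engagement due to this protein at one drug concentration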
HCK = molecular target: T1, HCK (Homo sapiens, UniProt P08631); assay: Kinobeads competition binding: HCK; conditions: target HCK
T1 construct: endogenous in cells
Description: Supplement 41589_2023_1459_MOESM4_ESM.xlsx, sheet "CATDS matrix" | column: HCK

LIMK1 = assay: Kinobeads competition binding: LIMK1; set-up: species or system human; conditions: target LIMK1
CIT = molecular target: T2, CIT (Homo sapiens, UniProt O14578); assay: Kinobeads competition binding: CIT; conditions: target CIT
T2 construct: endogenous in cells
Description: Supplement 41589_2023_1459_MOESM4_ESM.xlsx, sheet "CATDS matrix" | column: CIT

AP1G1 = assay: Kinobeads competition binding: AP1G1; set-up: species or system human; conditions: target AP1G1
CAMK2G = molecular target: T3, CAMK2G (Homo sapiens, UniProt Q13555); assay: Kinobeads competition binding: CAMK2G; conditions: target CAMK2G
T3 construct: endogenous in cells

AXL = molecular target: T4, AXL (Homo sapiens, UniProt P30530); assay: Kinobeads competition binding: AXL; conditions: target AXL
T4 construct: endogenous in cells
T4 sequence (P30530 26-894): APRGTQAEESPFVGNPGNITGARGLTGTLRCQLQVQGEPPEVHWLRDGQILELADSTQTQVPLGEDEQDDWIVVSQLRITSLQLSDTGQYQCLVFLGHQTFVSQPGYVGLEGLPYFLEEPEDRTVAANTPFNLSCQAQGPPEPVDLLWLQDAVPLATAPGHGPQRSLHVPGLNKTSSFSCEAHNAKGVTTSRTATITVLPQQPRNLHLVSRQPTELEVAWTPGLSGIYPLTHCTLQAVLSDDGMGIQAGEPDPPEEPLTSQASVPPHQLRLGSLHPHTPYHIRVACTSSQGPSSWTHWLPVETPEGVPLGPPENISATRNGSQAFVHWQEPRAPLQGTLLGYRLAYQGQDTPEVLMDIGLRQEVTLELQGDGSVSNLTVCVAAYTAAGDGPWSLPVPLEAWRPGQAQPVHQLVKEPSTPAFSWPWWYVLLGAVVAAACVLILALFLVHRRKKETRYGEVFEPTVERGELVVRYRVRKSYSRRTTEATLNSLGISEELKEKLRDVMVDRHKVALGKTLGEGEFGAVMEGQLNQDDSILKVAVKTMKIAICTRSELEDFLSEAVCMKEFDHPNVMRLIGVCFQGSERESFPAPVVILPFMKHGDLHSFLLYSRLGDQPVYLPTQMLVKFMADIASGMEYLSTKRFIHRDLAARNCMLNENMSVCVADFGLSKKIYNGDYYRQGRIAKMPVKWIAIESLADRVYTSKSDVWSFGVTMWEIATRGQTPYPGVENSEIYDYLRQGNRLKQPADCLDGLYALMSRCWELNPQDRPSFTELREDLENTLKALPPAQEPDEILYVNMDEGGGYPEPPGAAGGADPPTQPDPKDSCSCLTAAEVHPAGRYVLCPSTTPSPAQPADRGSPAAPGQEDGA
Description: Supplement 41589_2023_1459_MOESM4_ESM.xlsx, sheet "CATDS matrix" | column: AXL

PIM1 = molecular target: T5, PIM1 (Homo sapiens, UniProt P11309); assay: Kinobeads competition binding: PIM1; conditions: target PIM1
T5 construct: a mixture of lysates from five cancer cell lines; endogenous in cells

MST1R = assay: Kinobeads competition binding: MST1R; set-up: species or system human; conditions: target MST1R;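 note: selectivity score: engagement of this protein divided by summed engagement of all targets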
PHKG2 = molecular target: T6, PHKG2 (Homo sapiens, UniProt P15735); assay: Kinobeads competition binding: PHKG2; conditions: target PHKG2
T6 construct: a mixture of lysates from five cancer cell lines; endogenous in cells
T6 sequence (P15735 1-406): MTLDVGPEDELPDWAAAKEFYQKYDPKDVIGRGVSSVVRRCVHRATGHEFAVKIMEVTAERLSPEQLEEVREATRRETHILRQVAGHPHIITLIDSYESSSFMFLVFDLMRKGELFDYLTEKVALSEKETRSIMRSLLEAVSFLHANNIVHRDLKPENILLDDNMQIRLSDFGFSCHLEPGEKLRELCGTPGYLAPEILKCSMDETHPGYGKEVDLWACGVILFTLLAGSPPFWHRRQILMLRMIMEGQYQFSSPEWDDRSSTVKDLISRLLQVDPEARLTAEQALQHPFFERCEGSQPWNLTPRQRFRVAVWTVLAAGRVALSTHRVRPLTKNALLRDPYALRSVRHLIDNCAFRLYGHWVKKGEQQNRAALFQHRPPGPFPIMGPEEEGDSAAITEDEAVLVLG

ADCK3 = ADCK3 (Homo sapiens, UniProt Q8NI60); assay: Kinobeads competition binding: ADCK3; set-up: endogenous in cells; conditions: target ADCK3
MDN1 = assay: Kinobeads competition binding: MDN1; set-up: species or system human; conditions: target MDN1
LCK = assay: Kinobeads competition binding: LCK; set-up: species or system human; conditions: target LCK
PIK3C3 = molecular target: T7, PIK3C3 (Homo sapiens, UniProt Q8NEB9); assay: Kinobeads competition binding: PIK3C3; conditions: target PIK3C3
T7 construct: a mixture of lysates from five cancer cell lines; endogenous in cells

MAP4K5 = assay: Kinobeads competition binding: MAP4K5; set-up: species or system human; conditions: target MAP4K5
ERN2 = molecular target: T8, ERN2 (Homo sapiens, UniProt Q76MJ5); assay: Kinobeads competition binding: ERN2; conditions: target ERN2
T8 construct: endogenous in cells

MAPK10 = assay: Kinobeads competition binding: MAPK10; set-up: species or system human; conditions: target MAPK10
NLK = assay: Kinobeads competition binding: NLK; set-up: species or system human; conditions: target NLK;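 note: selectivity score: engagement of this protein divided by summed engagement of all targets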
CLK2 = assay: Kinobeads competition binding: CLK2; set-up: species or system human; conditions: target CLK2
EGFR = molecular target: T9, EGFR (Homo sapiens, UniProt P00533); assay: Kinobeads two-dose competition binding: EGFR; conditions: for CATDS: target EGFR
T9 construct: endogenous in cells

PIK3CB = assay: Kinobeads competition binding: PIK3CB; set-up: species or system human; conditions: target PIK3CB
MAP3K12 = assay: Kinobeads competition binding: MAP3K12; set-up: species or system human; conditions: target MAP3K12
BRAF = assay: Kinobeads competition binding: BRAF; set-up: species or system human; conditions: target BRAF

SMILES | CATDS (DDR1) | CATDS (FN3KRP) | CATDS (HCK) | CATDS (LIMK1) | CATDS (CIT) | CATDS (AP1G1) | CATDS (CAMK2G) | CATDS (AXL) | CATDS (PIM1) | CATDS (MST1R) | CATDS (PHKG2) | CATDS (ADCK3) | CATDS (MDN1) | CATDS (LCK) | CATDS (PIK3C3) | CATDS (MAP4K5) | CATDS (ERN2) | CATDS (MAPK10) | CATDS (NLK) | CATDS (CLK2) | further results
Nc1ncnc2[nH]c(-c3ccccc3)nc12 [AH5015_KCGS] | 0 | 0 | 0 | 0 | 0 | 0 | 0 | 0 | 0 | 0 | 0 | 0 | 0 | 0 | 0 | 0 | 0 | 0 | 0 | 0 | CATDS (EGFR): 0; CATDS (PIK3CB): 0; CATDS (MAP3K12): 0; CATDS (BRAF): 0
CCN1CCN(Cc2ccc(Nc3ncc(F)c(-c4cc(F)c5nc(C)n(C(C)C)c5c4)n3)nc2)CC1 [Abemaciclib] | 0 | 0 | 0 | 0 | 0.02291 | 0 | 0.09397 | 0 | 0.03255 | 0 | 0 | 0 | 0 | 0 | 0 | 0 | 0 | 0 | 0 | 0 | CATDS (EGFR): 0; CATDS (PIK3CB): 0; CATDS (MAP3K12): 0; CATDS (BRAF): 0
CN(C)C/C=C/C(=O)Nc1cc2c(Nc3ccc(F)c(Cl)c3)ncnc2cc1O[C@H]1CCOC1 [Afatinib] |  | 0 | 0 |  | 0 | 0 |  | 0 |  |  |  |  | 0 |  |  |  |  |  |  |  | 
CCc1cc2c(cc1N1CCC(N3CCOCC3)CC1)C(C)(C)c1[nH]c3cc(C#N)ccc3c1C2=O [Alectinib] | 0 | 0 | 0 | 0 | 0 | 0 | 0 | 0 | 0 | 0 | 0 | 0 | 0 | 0 | 0 | 0 | 0 | 0 | 0 | 0 | CATDS (EGFR): 0; CATDS (PIK3CB): 0; CATDS (MAP3K12): 0; CATDS (BRAF): 0
N#CC1(c2ccc(NC(=O)c3cccnc3NCc3ccncc3)cc2)CCCC1 [Apatinib] | 0 | 0 | 0 | 0 | 0 | 0 | 0 | 0 | 0 | 0 | 0 | 0 | 0 | 0 | 0 | 0 | 0 | 0 | 0 | 0 | CATDS (EGFR): 0; CATDS (PIK3CB): 0; CATDS (MAP3K12): 0; CATDS (BRAF): 0
C#Cc1cccc(Nc2ncnc3cc(OC)c(OC4CCN(C)CC4)cc23)c1 [BI00007366] |  |  |  |  |  |  |  |  |  |  |  |  |  |  |  |  |  |  |  |  | potency estimated from few doses (EGFR; Kinobeads two-dose, Drugmatrix - all 2, read-out: apparent Kd EGFR): > 1000 nM

— publication PMC11062922 (Nature Chemical Biology, 2023)
